# Measurements published in PubChem BioAssay AID720570 (Broad Institute, 2013).
# Tested on: TC71 Ewing sarcoma viability, CellTiter-Glo ATP, 72 h
# Experiment: TC71 Ewing sarcoma cell killing, confirmation, luminescence, cherry-picked samples, retest (AID 720570)
row,SMILES,AC35 [µM]
1,COc1ccc(-c2ccc3c(c2)[C@H]2[C@H](CCN2S(=O)(=O)c2ccc(OC)cc2)[C@@H](CO)N3C)cc1,4.48
2,CCC1=Nc2cc(C(=O)NCC3CCCO3)ccc2Sc2ccc(Br)cc21 (centres undefined),6.83
3,CC12CCC3C(CCC4(O)CC(O)CCC34C=NO)C1(O)CCC2C1=COC(=O)C1 (centres undefined),0.97
4,C[C@@H]1CN([C@H](C)CO)C(=O)c2cc(C#CCN(C)C)cnc2O[C@H]1CN(C)Cc1ccc(-c2ccccc2)cc1,22.2
5,Nc1cc2c(cc1Br)[nH]c(=O)c1ccccc12,23.3
6,CCCCC[C@H](C)N1C[C@H](COCc2ccccc2)Oc2cc(N3CC[C@@H](N(C)C)C3)ccc2S1(=O)=O,14.2
7,Cc1ccc(C)c(S(=O)(=O)N2CCN(c3ncnc4sccc34)CC2)c1,6.72
8,C#CCOCCOCCOCCNc1nc(N2CCN(C(=O)CCCCCCCCCCNC(=O)Cn3cc(C[C@@H](C)O)nn3)CC2)nc(N2CCN(C(=O)CCCCCCCCCCNC(=O)[C@H](CO)n3cc(CCCSC)nn3)CC2)n1,21.5
9,COc1ccc(/C=C/C(=O)c2cc(F)ccc2OC(=O)c2ccccc2OC)cc1OC,1.59
10,C[C@H](CO)N1C[C@H](C)[C@@H](CN(C)Cc2ccc(Oc3ccccc3)cc2)Oc2ccc(NS(=O)(=O)c3ccc(Cl)cc3)cc2CC1=O,13
11,CN(C)c1ccc(-c2ccnc3c2CC(C)(C(=O)NCc2ccco2)O3)cc1 (centres undefined),10.4
12,O=C1/C(=C\c2ccccc2)CN(C(=O)CCN2CCCCC2)C/C1=C/c1ccccc1,4.22
13,C[C@@H]1CN([C@@H](C)CO)C(=O)Cc2cc(N(C)C)ccc2O[C@@H]1CN(C)Cc1ccccc1,17.7
14,O=c1[nH]c(/C=C2\C=Nc3ccccc32)c(O)n1Cc1ccccc1F,20.7
15,COc1ccc(S(=O)(=O)N2CC[C@@H]3[C@H](CO)Nc4ccc(-c5ccc(C#N)cc5)cc4[C@@H]32)cc1,4.88
16,CN(C[C@H]1N[C@@H](CO)[C@@H]1c1ccc(C2=CCCC2)cc1)C(=O)c1cccc(F)c1,3.82
17,C[C@H](CO)N1C[C@H](C)[C@H](CN(C)Cc2ccc(C(=O)Nc3ccccc3N)cc2)Oc2ccc(N(C)C)cc2CC1=O,6.82
18,COc1cccc(CN2CCC2(C)C(=O)Nc2cccc3cccnc23)c1F (centres undefined),14.5
19,N#CC1=C(N)Oc2cc(N)ccc2C1c1cccc(F)c1 (centres undefined),4.98
20,COc1ccccc1C(CCNCc1ccc(N(C)C)cc1)c1ccc(OC(C)C)cc1 (centres undefined),10.9
21,C[C@H]1CN([C@@H](C)CO)C(=O)c2cc(NS(=O)(=O)c3ccc(Cl)cc3)ccc2O[C@H]1CN(C)Cc1ccc(Cl)c(Cl)c1,20.3

row,SMILES,AC35 [µM]
1,C[C@@H]1CN([C@@H](C)CO)C(=O)c2cccc(NC(=O)CCCCCC(=O)Nc3ccccc3N)c2O[C@@H]1CN(C)Cc1ccc(Oc2ccccc2)cc1,10.6
2,C(=NNc1ccc2ccccc2n1)c1ccccn1,1.55
3,Cc1ccccc1NC(=O)C(=Cc1ccc(C(=O)O)cc1)C(=O)Nc1ccccc1C,6.67
4,COc1ccc(C2=Nn3c([n+](C)c4ccccc43)SC2)cc1,19.6
5,C(=Cc1cnc2ccccc2n1)c1ccc2c(c1)OCO2,15.2
6,COCC(=O)Nc1ccc2c(c1)[C@@H]1C[C@@H](CC(=O)NCc3ccc(-c4ccccc4)cc3)O[C@@H](CO)[C@@H]1O2,12.9
7,Cc1ccc(OCCNC(=O)c2cccc(S(=O)(=O)NCc3ccccc3)c2)cc1,6.35
8,COc1ccc(S(=O)(=O)Nc2ccc3c(c2)C(=O)N([C@H](C)CO)C[C@@H](C)[C@@H](CN(C)Cc2ccc(C(=O)Nc4ccccc4N)cc2)O3)cc1,18.5
9,C[C@H](CO)N1C[C@H](C)[C@H](CN(C)Cc2ccc(C(=O)Nc3ccccc3N)cc2)Oc2ccc(NS(=O)(=O)c3cccs3)cc2C1=O,8.61
10,C[C@H]1CN([C@@H](C)CO)S(=O)(=O)c2ccc(C#CC(C)(C)O)cc2O[C@@H]1CN(C)Cc1ccc(-c2ccccc2)cc1,0.414
11,CCOc1cc(/C=N/Nc2cc(C)nc(-n3nc(C)cc3C)n2)ccc1O,7.76
12,O=C(c1nnsc1S(=O)c1ccc(Cl)cc1)N1CCOCC1 (centres undefined),21.9
13,C[C@H](CO)N1C[C@H](C)[C@H](CN(C)CC2CCCCC2)Oc2ccc(NC(=O)CCCCCC(=O)Nc3ccccc3N)cc2CC1=O,18.9
14,C[C@H](CO)N1C[C@H](C)[C@H](CN(C)Cc2ccc(C(F)(F)F)cc2)Oc2ccc(NC(=O)CCCCCC(=O)Nc3ccccc3N)cc2CC1=O,11.5
15,C=C1C(=O)OC2C1CCC(C)C1C=CC(=O)C12C (centres undefined),13.8
16,COc1ccc(CN(C)c2ncnc3sccc23)c(OC)c1OC,16.2
17,CC(=O)ON=C1C=CC(=C(C#N)c2ccccc2)C=C1,6.03
18,N#CC1=C(N)Oc2cc(N)ccc2C1c1cccc(Br)c1 (centres undefined),0.845
19,N#C[C@@H]1[C@H](c2ccc(C#Cc3ccc(F)cc3)cc2)[C@@H](CO)N1C(=O)Nc1ccc(F)cc1,10.9
20,COc1cc(C(=O)N2CCC(N3CCN(C)CC3)CC2)ccc1Nc1ncc2c(n1)N(C)c1ccccc1C(=O)N2C,11.4
21,N#CC1C=Cc2c(ccc3ccccc23)N1C(=O)c1ccccc1 (centres undefined),1.45

row,SMILES,AC35 [µM]
1,CCN(Cc1ccccc1)c1ccc(/C=N/N=C(N)N)cc1,15.2
2,C[C@H]1CN([C@@H](C)CO)C(=O)c2cc(N(C)C)ccc2O[C@H]1CN(C)Cc1ccc(C(=O)Nc2ccccc2N)cc1,12.1
3,COc1cccc(-c2cc(NC=O)c3ncc(-c4ccc(C(C)=O)cc4)n3c2)c1,1.78
4,C[C@@H]1CN([C@@H](C)CO)C(=O)c2cc(NS(=O)(=O)c3ccc(Cl)cc3)ccc2O[C@@H]1CN(C)Cc1ccc(C(=O)Nc2ccccc2N)cc1,12.7
5,O=C(O)c1ccc(N/N=C/c2c(F)cccc2Cl)cc1,3.26
6,O=C(NCc1cccnc1)C1Cc2c(-c3ccc(Cl)cc3)ccnc2O1 (centres undefined),13.2
7,C[C@@H]1CN([C@@H](C)CO)C(=O)c2cccc(NS(=O)(=O)c3ccccc3)c2O[C@@H]1CN(C)Cc1ccc(C(=O)Nc2ccccc2N)cc1,11.9
8,CC(=O)OC1CC(OC2C(O)CC(OC3C(O)CC(OC4CCC5(C)C(CCC6C5CCC5(C)C(C7=CC(=O)OC7)CCC65O)C4)OC3C)OC2C)OC(C)C1OC1OC(CO)C(O)C(O)C1O (centres undefined),0.258
9,Cc1ccc(S(=O)(=O)Nc2ccc3c(c2)C(=O)N([C@@H](C)CO)C[C@@H](C)[C@@H](CN(C)Cc2ccc(C(=O)Nc4ccccc4N)cc2)O3)cc1,11.5
10,O=C(NC[C@@H]1N[C@@H](CO)[C@H]1c1ccc(C2=CCCCC2)cc1)c1cccc(F)c1,12.3
11,C[C@H]1CN([C@@H](C)CO)C(=O)Cc2cc(NC(=O)CCCCCC(=O)Nc3ccccc3N)ccc2O[C@H]1CN(C)Cc1ccc(Cl)c(Cl)c1,14.1
12,CCc1ccc(Cn2ncc3c(C(=O)O)cc(C)nc32)cc1,20.8
13,CN1C(=O)c2cc(NC(=O)c3ccc(C(F)(F)F)cc3)ccc2OC[C@@H]2O[C@@H](CC(=O)NC3Cc4ccccc4C3)CC[C@H]21,4.86
14,Cc1[nH][nH]c(=O)c1C(c1c(C)[nH][nH]c1=O)c1cn(Cc2ccc(Cl)c(Cl)c2)c2ccccc12,11.3
15,Nc1nc(=S)c2ncn([C@@H]3O[C@H](CO)[C@@H](O)[C@H]3O)c2[nH]1,1.74
16,COC1C(O)C(C)OC(OC2CCC3(C)C(CCC4C3C(O)CC3(C)C(C5=CC(=O)OC5)CCC43O)C2)C1O (centres undefined),0.699
17,OC[C@H]1O[C@@H](n2cnc3c(NCc4ccco4)ncnc32)[C@H](O)[C@@H]1O,8.41
18,COc1cc2c(OC(C)=O)c3c(c(-c4ccc5c(c4)OCO5)c2cc1OC)C(=O)OC3,3.57
19,N/C(=C\C(=O)c1cc(Cl)ccc1O)C(Cl)(Cl)Cl,9.12
20,C[C@H]1CN([C@@H](C)CO)C(=O)Cc2cc(NC(=O)C3CC3)ccc2O[C@H]1CN(C)S(=O)(=O)c1ccc(Cl)cc1,17.3
21,COc1ccc(C(CCNCc2ccc(OC(C)C)cc2)C(C)C)cc1 (centres undefined),21.8

row,SMILES,AC35 [µM]
1,C[C@@H]1CN([C@H](C)CO)C(=O)c2cc(NC(=O)c3ccccc3)ccc2O[C@@H](C)CCCCO[C@H]1CN(C)C(=O)Nc1cccc2ccccc12,1.58
2,CC(C)N1C/C(=C/c2cccnc2)C(=O)/C(=C/c2cccnc2)C1,22.6
3,CN(C)c1ccc(N=Nc2nc3ccccc3n2C)cc1,13.6
4,CC(=O)OC1CC(OC2C(O)CC(OC3C(O)CC(OC4CCC5(C)C(CCC6C5CCC5(C)C(C7=CC(=O)OC7)C(O)CC65O)C4)OC3C)OC2C)OC(C)C1OC1OC(CO)C(O)C(O)C1O (centres undefined),2.35
5,COc1ccc(NC(=O)N2CCCCN3[C@@H](CO)[C@H](c4ccc(C5=CCCCC5)cc4)[C@@H]3C2)cc1,23.3
6,Cc1cccc(N2CCN(C3C(=O)Nc4ccccc4-n4nnnc43)CC2)c1C (centres undefined),13.9
7,C[C@@H]1CN([C@H](C)CO)C(=O)c2cc(NC(=O)CCCCCC(=O)Nc3ccccc3N)ccc2O[C@@H]1CN(C)Cc1ccc(Cl)c(Cl)c1,12.8
8,COc1cc2c(cc1OC)C(C)N(C(=O)c1cc(Cl)nc(Cl)c1)CC2 (centres undefined),11.9
9,C/C(=C\c1ccccc1)C(=O)N1CCC=CC1=O,13.7
10,O=c1cc(-c2ccccc2)oc2ccc3ccccc3c12,10.7
11,C[C@H](CO)N1C[C@H](C)[C@H](CN(C)Cc2ccc(Oc3ccccc3)cc2)Oc2ccc(NC(=O)Cn3cnnn3)cc2CC1=O,26.9
12,COC1C(C)OC(OC2CC(C)(O)Cc3cc4c(c(O)c32)C(=O)c2c(O)cc3c(c2C4=O)OC2OC3(C)C(O)C(N(C)C)C2O)C(OC)C1(C)OC (centres undefined),0.169
13,CO[C@H]1CN(C)C(=O)c2cc(NC(=O)NC(C)C)ccc2OC[C@H](C)N(Cc2ccc(-c3ccccn3)cc2)C[C@@H]1C,20.8
14,C[C@H]1O[C@@H](O[C@H]2[C@@H](O)C[C@H](O[C@H]3[C@@H](O)C[C@H](O[C@H]4CC[C@@]5(C)[C@H](CC[C@@H]6[C@@H]5C[C@@H](O)[C@]5(C)[C@@H](C7=CC(=O)OC7)CC[C@]65O)C4)O[C@@H]3C)O[C@@H]2C)C[C@H](O)[C@@H]1O,0.283
15,Cc1nc(N)nc(N)c1/C=C/C(C)(C)c1ccc(Cl)cc1,< 0.011
16,CCNC(=O)c1cc2c(c(-c3cccc(-c4cccc(OC)c4)c3)n1)[C@H](CCO)N([S@@](=O)C(C)(C)C)C2,7.43
17,CC(C)N1C/C(=C/c2ccsc2)C(=O)/C(=C/c2ccsc2)C1,14
18,COC(=O)C1=C(C)N(Cc2cccc(C(F)(F)F)c2)C(=NCc2ccc(OC)cc2)NC1c1cccc(F)c1 (centres undefined),10.9
19,Cc1ccc(C(C)C)c(OCc2ccc(C(=O)N/N=C/c3ccc(O)cc3O)cc2)c1,2.01
20,Cc1cc(-c2nc3cc(F)ccc3s2)ccc1N,14.2
21,O=C(N/N=C/c1ccc[nH]1)c1cc(-c2ccc(Cl)cc2)nc2ccccc12,15.2
